Values of other authors in US10561697B2, “Compositions based on saffron for the prevention and/or treatment of degenerative eye disorders” (Hortus Novus SRL, priority 2014, dated 2020).

How the values were obtained:
rats exposed to light = conditions: diet added with 0.2% of curcumin
[1] = test system: rats affected by the P23H mutation in the rhodopsin gene; conditions: 100 mg/kg

COc1cc(/C=C/C(=O)CC(=O)/C=C/c2ccc(O)c(OC)c2)ccc1O [curcumin]
onset of retinal oxidative and inflammatory stress (rats exposed to light): reduction in the onset of retinal oxidative and inflammatory stress
formation of rhodopsin aggregates [1]: active in inhibiting the formation of rhodopsin aggregates
morphology of the retina, photoreceptors preservation ([1]; transgenic rats): improvement in the morphology of the retina
